Here are results for seven compounds from US7648976B2, “17-allylamino-17-demethoxygeldanamycin polymorphs and formulations” (Bristol-Myers Squibb Company, priority 2005, dated 2010).

The structures appear in SMILES notation. Entries after “also recorded” stand apart in the source; their conditions may differ.

The nature of data set [1]: Effect of 17-AAG starting polymorph on formulation properties. It counts as physicochemical. As to conditions: non-sterile formulation made by procedure of Example 7 from the named polymorph. As to the method:
Particle size distribution was determined by dynamic light scattering with a Nanotract 250 particle size analyzer (Microtrac Inc., Montgomeryville, Pa.). The Nanotrac 250 settings were configured for measuring the PSD (volume distribution) of “Irregular” Shaped particles of “Absorbing” Transparency in a fluid with characteristics of water (Refractive Index: 1.333, Viscosity at 20° C.: […], Viscosity at 30° C.: 1.002 cP). A background signal was measured using 5% Dextrose for Injection (D5W). Then, the nanoparticle formulation was diluted 10 to 20-fold into D5W and mixed well. The PSD of the diluted sample was measured as the average of five replicate 5-minute analyses and reported in histogram format as a function of particle size. While the PSD reflects the range and frequency of particle sizes, other characteristics of the PSD were used for quantitation. The D50 is the volume percentile corresponding to the particle size larger than 50% of the total particle volume (i.e. the median particle size). The D90 is the volume percentile corresponding to the particle size larger than 90% of the total particle volume and is a measure of the largest particles in the dispersion. The particle size distribution measured by dynamic light scattering techniques was supplemented with SEM images, acquired by techniques established in the art. The particle sizes determined via the SEM images were in general agreement with those determined by light scattering.
17-AAG (purified Polymorph C, 1.25 g) was mixed with WFI (3.62 g) and a solution of polysorbate 80 (2.5 g of a 10 weight % solution in WFI), an aqueous suspension of soybean phosphatidylcholine (0.63 g of a 10 weight % suspension in WFI), and a solution of sucrose (10 g of a 25 weight % solution in WFI). The mixture was loaded into the reservoir of a Microfluidics Model 110S microfluidizer containing 7 g WFI set up as described in the previous example and processed under the same conditions. This procedure yielded a formulation having a 17-AAG concentration of approximately 50 mg/mL in an aqueous medium having approximately 1.0 weight % polysorbate 80, 0.25 weight % soy phosphatidylcholine, and 10 weight % sucrose, with a 17-AAG particle size distribution of below 1 micron with median particle size of 300 nm volume distribution.
Non-sterile formulations of 17-AAG were made with other polymorphs using the procedure of Example 7 and compared against formulations made with purified Polymorph C.

The nature of data set [2]: Polymorph stability to heat and humidity (VT-XRPD, DSC). It counts as physicochemical. The note with it: for polymorph conversion upon heating: VT-XRPD and/or DSC. From the text: 17-AAG is polymorphic and exists in multiple forms, many of which are solvates. We have generated many polymorphs using a variety of solvents and crystallization conditions. The polymorphs were characterized by techniques such as XRPD, DSC, infrared spectroscopy, gravimetric vapor sorption (GVS), ^1H-NMR, polarized light microscopy (PLM), and thermogravimetric analysis (TGA). We grouped the polymorphs according to similarities in XRPD data, with summary descriptions provided below. Polymorphs that are solvated are referred to by group and solvate names, as in “Polymorph A (DMF solvate)” or “the DMF solvate of Polymorph A”. • Group A The N,N-dimethylformamide (DMF), ethyl acetate (EtOAc), and methyl isobutyl ketone (MIBK) solvates of Polymorph A all have XRPD peaks at about 5.6, 7.0, 9.2, 11.2, 16.4, and 17.9 degrees 2θ (the first four being its lowest angle peaks). […] It has characteristic XRPD peaks at about 6.4, 8.3, 9.6, 13.3, 14.9, 15.7, 19.1, and 20.8 degrees 2θ. […] Typically, this polymorph group is prepared using high boiling solvents. After melting, these polymorphs exist in a molten state until decomposition at about 220° C.

On to `C=CCNC1=C2C[C@@H](C)C[C@H](OC)[C@H](O)[C@@H](C)/C=C(\C)[C@H](OC(N)=O)[C@@H](OC)/C=C\C=C(/C)C(=O)NC(=CC1=O)C2=O` [Amorphous, 17-allylamino-17-demethoxygeldanamycin], for which, in data set [1] (listed as Amorphous (1st run)), the Consistency result is listed as “Paste-like” and the Remarks result was “Does not form stable”. Moreover, in data set [1] (listed as Amorphous (2nd run)), the Consistency result is on record as “Paste-like” and the Remarks entry is given as “Does not form stable”.
Take `C=CCNC1=C2C[C@@H](C)C[C@H](OC)[C@H](O)[C@@H](C)/C=C(\C)[C@H](OC(N)=O)[C@@H](OC)/C=C\C=C(/C)C(=O)NC(=CC1=O)C2=O` [Polymorph A, 17-allylamino-17-demethoxygeldanamycin]: the “polymorph conversion upon heating” value in data set [2] is reported as “converted to the more stable Polymorph C”.
Regarding `C=CCNC1=C2C[C@@H](C)C[C@H](OC)[C@H](O)[C@@H](C)/C=C(\C)[C@H](OC(N)=O)[C@@H](OC)/C=C\C=C(/C)C(=O)NC(=CC1=O)C2=O` [Polymorph B, 17-allylamino-17-demethoxygeldanamycin], in data set [2], the “polymorph conversion upon heating” value is reported as “converted to Polymorph C”. In data set [1] (listed as B (1st run)), the Consistency result is listed as “Highly viscous” and the D50 is on record as 1.8 μm. For the same compound, in data set [1] (listed as B (2nd run)), the Consistency result is “Highly viscous” and the D50 is 2.0 μm.
For the compound `C=CCNC1=C2C[C@@H](C)C[C@H](OC)[C@H](O)[C@@H](C)/C=C(\C)[C@H](OC(N)=O)[C@@H](OC)/C=C\C=C(/C)C(=O)NC(=CC1=O)C2=O` [Polymorph C, 17-allylamino-17-demethoxygeldanamycin], in data set [2], the “polymorph conversion upon heating” value is “does not convert to any other polymorph upon heating”. Besides, the “relative stability among 17-AAG polymorphs” value in data set [2] (moisture/humidity and heat) is “the most stable to moisture and heat; also recorded: the most stable to heat and humidity”. In addition, in data set [1], the Consistency result is on record as “Water-like”, the D50 is 0.28 μm and the Remarks result is listed as “Stable nanoparticle”.
As for `C=CCNC1=C2C[C@@H](C)C[C@H](OC)[C@H](O)[C@@H](C)/C=C(\C)[C@H](OC(N)=O)[C@@H](OC)/C=C\C=C(/C)C(=O)NC(=CC1=O)C2=O` [Polymorph D (dichloromethane solvate), 17-allylamino-17-demethoxygeldanamycin], the “polymorph conversion upon heating” value in data set [2] was “converts to Polymorph C”.
On to `C=CCNC1=C2C[C@@H](C)C[C@H](OC)[C@H](O)[C@@H](C)/C=C(\C)[C@H](OC(N)=O)[C@@H](OC)/C=C\C=C(/C)C(=O)NC(=CC1=O)C2=O` [Polymorph E, 17-allylamino-17-demethoxygeldanamycin], for which, in data set [2] (40° C. and 70% relative humidity (RH)), the “polymorph conversion under humidity” value is “conversion to Polymorph C is observed”.
Regarding `C=CCNC1=C2C[C@@H](C)C[C@H](OC)[C@H](O)[C@@H](C)/C=C(\C)[C@H](OC(N)=O)[C@@H](OC)/C=C\C=C(/C)C(=O)NC(=CC1=O)C2=O` [Polymorph G, 17-allylamino-17-demethoxygeldanamycin], the “polymorph conversion upon heating” value in data set [2] is given as “Heating converts Polymorph G to Polymorph C”. Besides, in data set [1], the Consistency result is recorded as “Water-like” and the D50 stood at 0.36 μm.
